Experimental data taken from article PMC3262007, “A Fluorescence-Based High-Throughput Assay for the Discovery of Exchange Protein Directly Activated by Cyclic AMP (EPAC) Antagonists” (PLoS ONE, 2012).

Experiments:
[1] = tested on: EPAC; details: cited from earlier work
[2] = molecular target: T1, EPAC2 (Mus musculus, UniProt Q9EQZ6); assay: 8-NBD-cAMP competition / primary screen fluorescence assay; assay type: binding; details: for dose response of EPAC2/8-NBD-cAMP fluorescence signal: dose-dependent response, Figure 2; for IC50: competition with 8-NBD-cAMP in binding to EPAC2
T1 construct: when titrated with purified full-length EPAC2; made in house
T1 sequence (Q9EQZ6 1-993 isoform Q9EQZ6-3): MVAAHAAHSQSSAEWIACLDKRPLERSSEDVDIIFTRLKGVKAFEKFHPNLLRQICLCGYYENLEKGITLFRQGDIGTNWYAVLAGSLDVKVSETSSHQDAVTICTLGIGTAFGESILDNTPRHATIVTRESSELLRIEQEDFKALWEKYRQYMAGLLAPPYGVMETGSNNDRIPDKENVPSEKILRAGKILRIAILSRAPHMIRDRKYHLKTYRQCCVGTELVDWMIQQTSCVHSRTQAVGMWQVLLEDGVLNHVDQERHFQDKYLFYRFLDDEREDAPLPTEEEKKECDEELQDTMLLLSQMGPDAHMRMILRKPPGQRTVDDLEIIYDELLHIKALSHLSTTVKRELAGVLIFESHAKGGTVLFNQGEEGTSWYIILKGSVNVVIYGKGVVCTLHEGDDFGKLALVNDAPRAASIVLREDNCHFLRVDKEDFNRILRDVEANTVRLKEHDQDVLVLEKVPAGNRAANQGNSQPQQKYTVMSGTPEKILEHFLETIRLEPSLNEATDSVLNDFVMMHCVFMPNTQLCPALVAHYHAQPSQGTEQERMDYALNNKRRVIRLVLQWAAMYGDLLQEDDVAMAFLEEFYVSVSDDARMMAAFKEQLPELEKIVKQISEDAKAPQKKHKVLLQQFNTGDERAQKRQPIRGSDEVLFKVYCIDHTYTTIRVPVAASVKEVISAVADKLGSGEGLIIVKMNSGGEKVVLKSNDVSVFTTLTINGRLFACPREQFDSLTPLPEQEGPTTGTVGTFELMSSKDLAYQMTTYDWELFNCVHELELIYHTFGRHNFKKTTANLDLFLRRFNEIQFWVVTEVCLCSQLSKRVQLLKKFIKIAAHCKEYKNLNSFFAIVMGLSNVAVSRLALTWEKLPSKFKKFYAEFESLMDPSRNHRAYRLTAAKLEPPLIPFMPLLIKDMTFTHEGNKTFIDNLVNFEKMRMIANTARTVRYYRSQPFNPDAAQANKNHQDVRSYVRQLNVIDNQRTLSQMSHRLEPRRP
Procedure: Primary screen of NCI DTP (Developmental Therapeutics Program) diversity set library was performed in black 96-well microplates from Corning Costar (Cambridge, MA, USA). Briefly, 50 nM EPAC2 solution was prepared in 20 mM Tris buffer, pH 7.5, containing 150 mM NaCl, 1 mM EDTA and 1 mM […]. […] Test compounds were added from 10 mM stock solutions in DMSO. […] Fluorescence intensity signal from 8-NBD probe was recorded at room temperature before and after tested compounds were added using SpectaMaxM2 microplate reader (Molecular Devices, Silicon Valley, CA, USA) with excitation/emission wavelengths set at 470/540 nm.

[3] = molecular target: T2, type I PKA holoenzyme (Homo sapiens, UniProt P10644); assay: Type I PKA holoenzyme kinase activity (counter screening assay); assay type: biochemical; details: 25 µM compound, 0.1 mM cAMP
T2 construct: made in house; host or cells: E. coli
T2 sequence (P10644 whole entry): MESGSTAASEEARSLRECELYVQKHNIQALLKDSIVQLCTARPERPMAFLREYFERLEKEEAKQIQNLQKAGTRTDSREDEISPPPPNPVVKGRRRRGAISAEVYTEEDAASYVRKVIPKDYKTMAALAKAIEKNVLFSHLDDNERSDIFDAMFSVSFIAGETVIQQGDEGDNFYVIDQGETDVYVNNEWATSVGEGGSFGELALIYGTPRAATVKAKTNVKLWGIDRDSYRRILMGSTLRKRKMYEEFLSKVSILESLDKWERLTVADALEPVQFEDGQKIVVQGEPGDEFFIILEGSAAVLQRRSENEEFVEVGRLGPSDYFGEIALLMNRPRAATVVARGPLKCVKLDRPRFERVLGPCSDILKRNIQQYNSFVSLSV
Procedure: (§1) Kinase activities of the type I and II PKA holoenzymes were measured spectrophotometrically in a 96-well plate with a coupled enzyme assay as described previously. In this assay, the formation of the ADP is coupled to the oxidation of NADH by the pyruvate kinase/lactate dehydrogenase reactions so the reaction rate can be determined by following the oxidation of NADH, reflected by a decrease in absorbance at 340 nm. […] Reactions were pre-equilibrated at room temperature and initiated by adding the Kemptide substrate (final concentration 0.26 mM). PKA activities measured in the presence of 25 µM H89, a selective PKA inhibitor, were used as positive controls of PKA inhibition.

[4] = molecular target: T1, EPAC2; assay: EPAC2 GEF activity, Rap1 nucleotide exchange (secondary confirmation assay); assay type: biochemical; details: 25 µM compound in the presence of 25 µM cAMP
Procedure: Measurement of in vitro guanine nucleotide exchange factor (GEF) activity of EPAC was adapted from a well known fluorescence-based assay using a fluorescent guanine nucleotide analog, and used as a functional confirmation assay for the compounds identified from primary screen. […] Exchange of Mant-GDP by GDP was measured as a decrease in fluorescence intensity over time using a FluoroMax-3 spectrofluorometer with excitation/emission wavelengths set at 366/450 nm. Typically, decay in the fluorescence intensity was recorded over a time course of 6000 s with data points taken every 60 s.

[5] = molecular target: T3, type II PKA holoenzyme (Homo sapiens, UniProt P31323); assay: Type II PKA holoenzyme kinase activity (counter screening assay); assay type: biochemical; details: 25 µM compound, 0.1 mM cAMP
T3 construct: made in house; host or cells: E. coli
T3 sequence (P31323 whole entry): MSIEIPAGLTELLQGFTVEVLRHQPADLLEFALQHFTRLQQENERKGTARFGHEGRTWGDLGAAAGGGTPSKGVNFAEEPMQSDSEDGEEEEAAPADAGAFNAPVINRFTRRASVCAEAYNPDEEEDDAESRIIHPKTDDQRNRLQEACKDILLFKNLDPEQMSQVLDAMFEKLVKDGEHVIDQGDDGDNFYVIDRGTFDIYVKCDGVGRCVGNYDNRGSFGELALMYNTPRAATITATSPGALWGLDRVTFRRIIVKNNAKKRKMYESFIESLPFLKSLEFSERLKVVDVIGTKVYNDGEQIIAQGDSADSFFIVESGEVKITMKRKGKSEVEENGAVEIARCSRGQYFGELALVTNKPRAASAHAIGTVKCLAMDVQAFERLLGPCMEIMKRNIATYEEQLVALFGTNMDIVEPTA
Procedure: as §1

| Compound | dose response of EPAC2/8-NBD-cAMP fluorescence signal [2] | inhibition of cAMP-mediated EPAC2 GEF activity [4] | IC50 [2] [µM] | further results |
| --- | --- | --- | --- | --- |
| CO[C@@H]1[C@@H]2OP(=O)(O)OC[C@H]2O[C@H]1n1c(Sc2ccc(Cl)cc2)nc2c(N)ncnc21 [8-CPT-2′-O-Me-cAMP, 8-(4-chloro-phenylthio)-2′-O-methyladenosine-3′,5′-cyclic monophosphate] |  |  |  | selectivity towards EPAC over PKA [1]: about 100 fold |
| O=c1[nH]c(=O)c2ncn(C3OC4COP(=O)(O)OC4C3O)c2[nH]1 (stereo not shown) [cXMP, reference compound] | minimal effects |  |  |  |
| Nc1ncnc2c1nc(Cl)n2[C@@H]1O[C@@H]2COP(=O)(O)O[C@H]2[C@H]1O [8-Cl-cAMP, reference compound] | significant dose-dependent inhibitions |  |  |  |
| O=C1C=CC2=C(Oc3c(ccc(O)c3O)/C2=C/C=C(O)O)C1=O [NSC119911] |  | inhibit EPAC2 GEF activity to basal levels | 3.8 | type I PKA activity blocked [3]: ~50%; type II PKA activity blocked [5]: ~50% |
| Nc1ncnc2c1ncn2C1CC2OP(=O)(O)OCC2O1 (stereo not shown) [2′-deoxy-cAMP, reference compound] | minimal effects |  |  |  |
| N#Cc1c(NC(=O)C(F)(F)F)sc2c3c(=O)c4ccccc4c(=O)c=3oc3ccccc3c12 [NSC686365] |  | inhibit EPAC2 GEF activity to basal levels | 7.9 | effect on cAMP-induced type I PKA holoenzyme activation [3]: did not significantly alter; effect on cAMP-induced type II PKA holoenzyme activation [5]: did not significantly alter |
| O=C1C=Cc2ccccc2C1=NNc1cccc2cc(S(=O)(=O)O)ccc12 [NSC45576] |  | inhibit EPAC2 GEF activity to basal levels | 1.7 | effect on cAMP-induced type I PKA holoenzyme activation [3]: did not significantly alter; effect on cAMP-induced type II PKA holoenzyme activation [5]: did not significantly alter |
